Laboratory results published in patent EP2157088A1, “INDICYANINE DYES AND THE DERIVATIVES THEREOF FOR ANALYSING BIOLOGICAL MICROMOLECULES” (UCHREZHDENIE ROSSIISKOI AKADEMII NAUK INSTITUT …, priority 2007, dated 2008).

Legend:
[1] = Quantum efficiency of fluorescence, measured versus a reference dye; type: physicochemical
Method: For all indodicarbocyanine dyes (I) (A1) - (A30) and (B1) - (B7) of the invention, there are determined the quantum efficiency of fluorescence in methanol and in aqueous phosphate buffered saline (Table 1, Fig. 3). The measurements are performed versus dyes of formula (I) (R1= -CH3, R2= R6= -SO3^-; R3= -(CH2)5COOH, R4= -C2H5, R5= -H) whose quantum efficiency of fluorescence in PBS is 0.27 (Mader O., K. Reider, H.-J. Egelhaaaf, R, Fischer, R. Brock, Structure Properties of Pentamethine Indocyanine Dyes: Identification of New Dyes for Life Science Applications. Bioconjugate Chem, 2004, vol. 15, pp. 70-78). In methanol, dyes (A10, A22, A25, A29, A30) have the upper-range of quantum efficiency of fluorescence (Φ ∼ 0.3), but in PBS, dyes (A10, A22, A25, A29, A30) have the maximal Φ -value.

[2] = type: physicochemical
Text: Subject to substituent at the heterocyclic moiety, dyes of formulae (A) and (B) proposed are distinguished by a spectral range of excitation and fluorescence, by the total electrical charge, and water solubility (Table 1).

[3] = Absorption and fluorescence maxima of the dyes; type: physicochemical
Text: An insertion of methyl group at 5- and 7-positions of indolenyne cycle produces a bathochromic shift in the absorption and fluorescent spectra. As to the rest sulfur containing dyes, the spectral characteristics thereof appear to be in the same range (between about λmax 648 nm and λem 669 nm) (Fig. 1),

[4] = Molar extinction coefficient in methanol and PBS; type: physicochemical; design: ε·10^-5: unit not given here
Method: For all indodicarbocyanine dyes (I) (A1) - (A30) and (B1) - (B7) of the invention, there are determined the molar extinction coefficients in methanol and in aqueous phosphate buffered saline (PBS) (10 mM potassium phosphate buffer, sodium chloride concentration is 0.9%, pH 7.4). In methanol, indodicarbocyanine (A1, A8, A10-A12, A17, A23) has the upper-range of molar extinction coefficient (ε >[…]). In aqueous phosphate buffered saline (PBS), dyes (A10, A23, A30) have the maximal ε-value (Fig. 2).

[5] = Relative efficiency of fluorescence / absolute sensitivity of label, normalized to dye A30 in PBS; type: physicochemical; settings: for Sensitivity of record 635/ 670: excitation 635 nm, record 670 nm; for Sensitivity of record 655/ 690: excitation 655 nm, record 690 nm; for Sensitivity of record max/ max: excitation and record in absorption and fluorescence maxima, ε*Φ normalized to A30 in PBS
Text: The data obtained were as follows: • on excitation and record in absorption and fluorescence maxima, the relative efficiency of fluorescence exceeds 0.80 for dyes (A10), (A22), (A23), (A25), and (A30) in methanol and for dyes (A22), (A25), and (A30) in PBS (Table 1, Fig. 4), whereas for dyes of formula (I) (R1 = -CH3, R2= R6= -SO3^-; R3= -(CH2)5COOH, R4= -C2H5; R5= -H) the values are 0.69 in methanol and 0.67 in PBS; • on excitation at wavelength 655 nm and record at 690 nm, the relative efficiency of fluorescence exceeds 0.25 for dyes (A25) and (A30) in methanol and is higher than 0.18 for dyes (A24) and (A30) in PBS (Table 1, Fig. 5), whereas for dyes of formula (I) (R1 = -CH3, R2 = R6= -SO3^-; R3= -(CH2)5COOH, R4= -C2H5; R5= -H) the values are 0.18 in methanol and 0.11 in PBS; • on excitation at wavelength 635 nm and record at 670 nm, the relative efficiency of fluorescence exceeds 0.50 for dyes (A1), (A11), (A23) in methanol and is higher than 0.45 for dyes (A22), (A25), and (A30) in PBS (Table 1, Fig. 6), whereas for dyes of formula (I) (R1= -CH3, R2= R6= -SO3^-; R3= -(CH2)5COOH, R4= -C2H5; R5= -H) the values are 0.44 in methanol and 0.38 in PBS.
Term sensitivity of fluorescent analysis is defined by the absolute sensitivity of label that may be represented as the product of molar extinction coefficient by quantum efficiency of fluorescence (ε*Φ). Thus, there are determined the absolute sensitivity of indodicarbocyanines (A1-A30, B1-B7) in appropriate absorption and fluorescence maxima in methanol and in aqueous phosphate buffered saline. The values are normalized to the maximal value obtained for dye (A30) in PBS (Table 1). In methanol, dyes (A10, A22, A23, A25, A30) have the upper-range of absolute sensitivity, but in PBS, dyes (A10, A22, A25, A29, A30) have the maximal values of sensitivity (Fig. 4).
To determine the most appropriate dyes for instrument setting, there are measured the relative efficiency of fluorescence of dyes at wavelength of excitation and record of the instrument (655 nm. / 690 nm). The maximal values appear to be specific to dyes (A25) and (A30) in methanol, and to dyes (A19, A22, A25, A29, A30) in PBS (Table 1, Fig. 5).
There are also measured the relative efficiency of fluorescence at wavelength of excitation and record of the instrument (635 nm / 670 nm). The maximal values appear to be specific to dyes (A1, A10, A11, A23) in methanol, and to dyes (A10, A22, A25, A29, A30) in PBS (Table 1, Fig. 6).

[6] = PBS (10 mM potassium phosphate buffer, 0.9% sodium chloride, pH 7.4)

| Molecule | Φ (quantum efficiency of fluorescence) ([1]; MeOH) | water solubility [2] | λmax^abs ([3]; MeOH) [nm] | λmax^em ([3]; MeOH) [nm] | λmax^abs ([3]; PBS) [nm] | λmax^em ([3]; PBS) [nm] | ε·10^-5 ([4]; MeOH) | ε·10^-5 [4, 6] | Φ (quantum efficiency of fluorescence) ([1]; PBS) | Sensitivity of record 635/ 670 ([5]; MeOH) | Sensitivity of record 655/ 690 ([5]; MeOH) | Sensitivity of record max/ max ([5]; MeOH) | Sensitivity of record 635/ 670 ([5]; PBS) | Sensitivity of record 655/ 690 ([5]; PBS) | Sensitivity of record max/ max ([5]; PBS) | molar extinction coefficient (ε) ([4]; in methanol) [M⁻¹ cm⁻¹] |
| --- | --- | --- | --- | --- | --- | --- | --- | --- | --- | --- | --- | --- | --- | --- | --- | --- |
| 5,5'-disulfo-N,N'-di(4-sulfobutyl)-3-(4-carboxybutyl)-3,3',3'-trimethylindodicarbocyanine, trisodium salt [A30] | ~0.3 | very good water solubility |  |  |  |  |  |  |  |  |  |  |  |  |  |  |
| CC[N+]1=C(/C=C/C=C/C=C2/N(CCCCS(=O)(=O)[O-])c3ccccc3C2(C)CCCCC(=O)O)C(C)(C)c2cc(C)ccc21 (stereo not shown) [A2, 3-(4-Carboxybutyl)-N-(4-sulfobutyl)-3,3',3',5'-tetramethyl-N'-ethylindodicarbocyanine] | 0.17 |  | 649 | 667 | 647 | 662 | 2.01±0.01 | 1.99±0.03 | 0.09 | 0.320 | 0.149 | 0.442 | 0.184 | 0.068 | 0.261 |  |
| CC[N+]1=C(/C=C/C=C/C=C2/N(CCCCS(=O)(=O)[O-])c3ccc(C)cc3C2(C)CCCCC(=O)O)C(C)(C)c2cc(C)cc(C)c21 (stereo not shown) [A6, 3,3',3',5,5'.7'-hexamethyl-3-(4-carboxybutyl)-N-(4-sulfobutyl)-N'-ethylindodicarbocyanine] | 0.11 |  | 654 | 672 | 656 | 676 | 2.13±0.03 | 1.82±0.03 | 0.07 | 0.151 | 0.198 | 0.292 | 0.089 | 0.085 | 0.170 |  |
| CCN1/C(=C/C=C/C=C/C2=[N+](CC)c3ccccc3C2(C)C)C(C)(CCCCC(=O)O)c2cc(S(=O)(=O)[O-])ccc21 (stereo not shown) [A9, N,N'-diethyl-3-(4-carboxybutyl)-5-sulfo-3,3',3'-trimethylindodicarbocyanine] | 0.23 |  | 648 | 663 | 646 | 659 | 2.07±0.03 | 1.91±0.02 | 0.15 | 0.424 | 0.124 | 0.627 | 0.229 | 0.052 | 0.385 |  |
| CC[N+]1=C(C=CC=CC=C2N(CCCCS(=O)(=O)[O-])c3ccccc3C2(C)C)C(C)(CCCCC(=O)O)c2ccccc21 (stereo not shown) [A8, 3-(4-carboxybutyl)-N'-(4-sulfobutyl)-3,3',3'-trimethyl-N-ethylindodicarbocyanine] | 0.26 |  | 647 | 662 | 646 | 660 | 2.20±0.02 | 2.13±0.02 | 0.15 | 0.493 | 0.134 | 0.730 | 0.262 | 0.054 | 0.433 | > 220000 |
| CC[N+]1=C(/C=C/C=C/C=C2/N(CCCCS(=O)(=O)[O-])c3ccccc3C2(C)CCCCC(=O)O)C(C)(C)c2cc(C)cc(C)c21 (stereo not shown) [A3, 3-(4-Carboxybutyl)-3,3',3',5',7'-pentamethyl-N-(4-sulfobutyl)-N'-ethylindodicarbocyanine] | 0.12 |  | 652 | 670 | 650 | 665 | 1.93±0.01 | 1.84±0.01 | 0.08 | 0.210 | 0.138 | 0.314 | 0.132 | 0.069 | 0.199 |  |
| CC1(C)C(=CC=CC=CC2=[N+](CCCCS(=O)(=O)[O-])c3ccc(CCC(=O)O)cc3C2(C)C)N(CCCCS(=O)(=O)[O-])c2ccc(S(=O)(=O)[O-])cc21.[Na+].[Na+] [B7, N,N'-disulfobutyl-5-carboxyethyl-5'-sulfo-3,3,3',3'-tetramethylindodicarbocyanine, disodium salt] |  | very good water solubility |  |  |  |  |  |  |  |  |  |  |  |  |  |  |
| CCN1C(=CC=CC=CC2=[N+](CCCCS(=O)(=O)[O-])c3ccc(C)cc3C2(C)CCCCC(=O)O)C(C)(C)c2ccccc21 (stereo not shown) [A4, 3-(4-Carboxybutyl)-N-(4-sulfobutyl)-3,3',3',5-tetramethyl-N'-ethylin:dodicarbpcyanine] | 0.14 |  | 651 | 668 | 649 | 665 | 2.14±0.03 | 2.1 ± 0.03 | 0.10 | 0.243 | 0.143 | 0.381 | 0.162 | 0.054 | 0.255 |  |
